Assay results taken from patent US20090099351A1, “NYLON POLYRIBONUCLEOSIDES” (New York University, priority 2007, published 2009).

Tested on: Phosphodiesterase II (calf spleen phosphodiesterase, CSP)
Assay: Phosphodiesterase II (CSP) controlled exonuclease digestion monitored by MALDI-TOF MS
Assay type: in vitro ADME
Conditions: 37° C.; for time for CSP digestion to reach the modified nucleotides: 5′-3′ exonuclease; for degradation of the remaining modified fragment by CSP: after 4 h, fragment starting at modified nucleotides
Experimental: Phosphodiesterase II controlled digestion for ODNs sequencing. The controlled digestion procedure followed slight modification of the reported protocol (Chou et al., 2000). ODN ([…] in 5 μL water) was mixed with phosphodiesterase II (calf spleen phosphodiesterase, CSP) solution (5 milliunits in 5 μL water) and ammonium citrate water solution (1 μL, 50 g/L). After vortex mixing and centrifuge, the mixture was incubated at 37° C. Aliquots (1 μL) were removed after 0.5, 2, 4, 9, 15, 20, 30, 40, 60, 240 min and quickly mixed with trihydroxyacetophenone (THAP, as MALDI-TOF matrix) solution (1 μL, 30 mg in 1 mL methanol) before being placed in dry ice to quench the reaction. All digestion aliquots were spotted on a target and analyzed by MALDI-TOF MS.
To locate the modified regions of nylon nucleic acid, controlled exonuclease digestion was performed on the template-synthesized nylon nucleic acid 3b and 8b with DNA 1 as a control, and monitored as a function of time. Phosphodiesterase II (calf spleen phosphodiesterase, CSP) served as the exonuclease, cleaving from the 5′-terminus. […] In 2 min, the digestion of 3b reached modified nucleotides UnUc. It took 4 min for the digestion of 8b to move to the modified region. […] It has been reported that CSP is inhibited by sugar-modified nucleotides (Pieles et al., 1993) and not by base-modified nucleotides, so these CSP digestion results are consistent with the 2′-ribose modification present in nylon nucleic acids. Furthermore, the sequence information about modified nucleotides from the 5′-end within nylon nucleic acids were also verified.

Substance | time for CSP digestion to reach the modified nucleotides [min] | degradation of the remaining modified fragment by CSP | DNA fragments remaining after CSP digestion (in 1 h)
5′-GCATAGUcUnnUccUnnUccUnGTCTAC [8b] | 4 | no degradation was detected | –
5′-GCATAGTTUnUcTTGTCTAC [3b] | 2 | no degradation was detected | –
5′-GCATAGTTTTTTGTCTAC (DNA, backbone and methylation of C not given here) [DNA 1, reference compound] | – | – | no DNA fragments longer than trimer were detected
